Source: patent publication US8541670B2, “Compositions and methods for inhibiting tumor cell growth” (priority 2007, dated 2013)
Where no end group is shown, it is not given here. red fluorescent dye = not defined here

What was measured:
PKA and CDK5 = test: In vivo phosphorylation of DARPP-32 at Thr-34 (PKA site) and Thr-75 (CDK5 site); design: species or system mouse; details: striatum
Method: As a striatal specific substrate for PKA and CDK5, the phosphorylation level of DARPP-32 was determined at Thr-34 (the PKA site) or at Thr-75 (the CDK5 site)(Huang, et al. (1999) supra).

N2a cells = test: Neurite count and live imaging of N2a neurons; format: cell-based
Method: Accordingly, the stability and phenotypic consequences of the AKT-PKAc complex was also analyzed in cultured neurons. N2a cells were treated with vehicle, ZaTa or control peptide for 24 hours. Media was removed after the 24-hour treatment and an equal number of cells from each treatment group was either cultured for another 24 hours without treatment, or lysed and subjected to immunoprecipitation with an antibody against AKT. Those cells cultured for another 24 hours were also harvested and subjected to immunoprecipitation. In parallel, the number of individual neurons with neurites was counted. […] Live images of N2a neurons were captured following treatment with vehicle or ZaTa (2 or 5 μM). […] ZaTa-mediated changes included a progressive loss of neurites, inhibition of new neurite formation, loss of cell motility, as well as formation of large cell colonies.

[1] = tested on: axonal filament bundles in striatum; test: In vivo axon morphology, neurofilament-H staining of striatum after stereotactic injection; design: species or system mouse; details: 18 hours after surgery, versus DMSO hemisphere
Method: To determine the phenotypic effect of disrupting the AKT-PKAc complex in an in vivo setting, ZaTa peptide was stereotactically injected into the brain of a mouse and the animal was perfused 18 hours after recovery from surgery. Because AKT is known to have a role in axonal morphology (Markus, et al. (2002) Neuron 35:65-76), coronal sections of striatum were stained with neurofilament-H(NF—H), as an axonal-specific marker. […] PKA is also known to have a role in regeneration of growth cones on axons (Chierzi, et al. (2005) Eur. J. Neurosci. 21:2051-2062). Therefore, given the data provided herein, it is believed that a proper interaction between AKT and PKAc is involved in maintaining normal neuronal morphology.

PAK3 = PAK3 (Homo sapiens, UniProt O75914); test: Cell-based kinase assay, phosphorylation of intracellular substrate (Ser-338 cRaf)
Method: As a specific substrate, the phosphorylation level of GSK-3[…] at Ser-9 was also evaluated. […] The decrease was specific to the AKT phosphorylation site on GSK-3[…] at Ser-9, since a change in the phosphorylation level of GSK-3[…] at Tyr-216 or GSK-3[…] at Tyr-279 was not observed. Moreover, the in vivo reduction of the phosphorylation of AKT substrates was more obvious at the injection site, since a significant change in the phosphorylation of AKT substrates in the frontal cortex or cerebellum between the two hemispheres was not observed. […] To test the specificity/selectivity of ZaTa as the inhibitor of AKT1 versus the other major kinases, a series of in vitro kinase assays was performed at IC50 for AKT1 and at ten times higher concentrations. […]
Phosphorylation sites for kinases analyzed herein included Ser-235/236 S6 (a substrate for p70S6K), Tyr-207 CRKL (a substrate for Abl; Zipfel, et al. (2004) supra), Ser-241 PDK1 (a substrate for PI3K), Tyr-1022/1023 JAK1 (a substrate for JAK3; Wang, et al. (2003) supra), Ser-421 Huntingtin (a substrate for SGK; Rangone, et al. (2004) supra), Tyr-783 PLC (a substrate for TrkB; Middlemas, et al. (1994) supra), and Ser-338 cRaf (a substrate for PAK3; King, et al. (1998) supra).

PAK3, sequence (O75914 whole entry, species assumed): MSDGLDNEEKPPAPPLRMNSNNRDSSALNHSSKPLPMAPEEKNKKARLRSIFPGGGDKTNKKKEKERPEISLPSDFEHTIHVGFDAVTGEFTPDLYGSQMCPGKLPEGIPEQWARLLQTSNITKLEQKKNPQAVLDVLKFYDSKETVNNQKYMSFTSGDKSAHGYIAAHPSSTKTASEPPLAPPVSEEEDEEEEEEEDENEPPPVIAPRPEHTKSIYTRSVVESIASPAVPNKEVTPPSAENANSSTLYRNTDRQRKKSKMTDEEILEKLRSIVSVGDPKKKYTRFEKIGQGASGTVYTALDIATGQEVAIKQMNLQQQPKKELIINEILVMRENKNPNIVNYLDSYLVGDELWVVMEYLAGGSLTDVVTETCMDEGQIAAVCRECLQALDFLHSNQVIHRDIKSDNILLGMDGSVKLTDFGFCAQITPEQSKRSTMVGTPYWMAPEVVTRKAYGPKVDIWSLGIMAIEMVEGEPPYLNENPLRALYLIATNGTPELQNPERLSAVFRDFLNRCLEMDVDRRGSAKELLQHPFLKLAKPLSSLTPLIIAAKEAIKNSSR

Substance	phosphorylation of DARPP-32 at Thr-34 or Thr-75 (PKA and CDK5)	morphology of N2a neurons, live images (N2a cells; 2 or 5 μM)	reversibility of neurite reduction (N2a cells; 24-hour incubation in the absence of ZaTa)	number of neurons with neurites (N2a cells; 24-hour treatment)	staining pattern of axonal filament bundles (NF-H) in striatum [1]	inhibition of PAK3 in cells (PAK3)
AKRVKGRTWTLCGTPEY [ZaTa]	did not cause any significant change	dramatic morphological changes	reversible	significant reduction	Changes in the staining pattern of axonal filament bundles	–
labeled ZaTa: ZaTa peptide labeled with a red fluorescent dye at its N-terminus ({red fluorescent dye}-AKRVKGRTWTLCGTPEY; reading uncertain)	–	–	–	–	–	did not cause inhibition
